According to US9695155B2, “Herbicidal substituted pyrimidinyloxy benzene compounds” (E. I. DU PONT DE NEMOURS AND COMPANY, priority 2013, dated 2017):

Experiments:
corn [1] = experiment: Test A preemergence; type: in vivo, Zea mays
How it was run: (§1)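 Compounds in non-phytotoxic solvent with surfactant applied as soil spray preemergence, or postemergence to plants 2-10 cm at one- to two-leaf stage, in loam/sand. After approximately 10 days in greenhouse, injury rated visually versus untreated controls, 0 (no effect) to 100 (complete control).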

barnyardgrass [2] = experiment: Test C flooded paddy test; type: in vivo, Echinochloa crus-galli; settings: Flood, scale 0 to 100 (0 no effect, 100 complete control), 13 to 15 days
Source text: (§2) At time of treatment, test pots were flooded to 3 cm above the soil surface, treated by application of test compounds directly to the paddy water, and then maintained at that water depth for the duration of the test. Treated plants and controls were maintained in a greenhouse for 13 to 15 days, after which time all species were compared to controls and visually evaluated. […] A dash (-) response means no test result.

giant foxtail [3] = experiment: Test A preemergence; type: in vivo, Setaria faberii
How it was run: as §1

velvetleaf [4] = experiment: Test A postemergence; type: in vivo, Abutilon theophrasti; settings: 0 to 100 scale where 0 is no effect and 100 is complete control
How it was run: as §1

barnyardgrass [5] = experiment: Test A preemergence; type: in vivo, Echinochloa crus-galli
How it was run: as §1

velvetleaf [6] = experiment: Test A preemergence; type: in vivo, Abutilon theophrasti
How it was run: as §1

sedge, umbrella [7] = experiment: Test C flooded paddy test; type: in vivo, Cyperus difformis; settings: Flood, scale 0 to 100 (0 no effect, 100 complete control), 13 to 15 days
Source text: as §2

sedge, umbrella [8] = experiment: Test B flooded paddy test; type: in vivo, Cyperus difformis; settings: Flood, 250 g ai/ha; 0 to 100 scale where 0 is no effect and 100 is complete control
How it was run: (§3)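 2-leaf stage plants; pots flooded to 3 cm, compound added to paddy water, depth maintained. Greenhouse 13–15 d. Visual rating vs untreated controls, 0 (no effect) to 100 (complete control); dash = no result.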

corn [9] = experiment: Test A postemergence; type: in vivo, Zea mays
How it was run: as §1

morningglory [10] = experiment: Test A postemergence; type: in vivo, Ipomoea spp.; settings: 0 to 100 scale where 0 is no effect and 100 is complete control
How it was run: as §1

large (Lg) crabgrass [11] = experiment: Test A preemergence; type: in vivo, Digitaria sanguinalis
How it was run: as §1

ducksalad = experiment: Test C flooded paddy test; type: in vivo, Heteranthera limosa; settings: Flood, scale 0 to 100 (0 no effect, 100 complete control), 13 to 15 days
Source text: as §2

barnyardgrass [12] = experiment: Test B flooded paddy test; type: in vivo, Echinochloa crus-galli; settings: Flood, 250 g ai/ha; 0 to 100 scale where 0 is no effect and 100 is complete control
How it was run: as §3

large (Lg) crabgrass [13] = experiment: Test A postemergence; type: in vivo, Digitaria sanguinalis; settings: 0 to 100 scale where 0 is no effect and 100 is complete control
How it was run: as §1

morningglory [14] = experiment: Test A preemergence; type: in vivo, Ipomoea spp.
How it was run: as §1

wheat [15] = experiment: Test A postemergence; type: in vivo, Triticum aestivum
How it was run: as §1

barnyardgrass [16] = experiment: Test A postemergence; type: in vivo, Echinochloa crus-galli
How it was run: as §1

Heteranthera limosa = experiment: Test B flooded paddy test; type: in vivo; settings: Flood, 250 g ai/ha; 0 to 100 scale where 0 is no effect and 100 is complete control
How it was run: as §3

wheat [17] = experiment: Test A preemergence; type: in vivo, Triticum aestivum
How it was run: as §1

rice [18] = experiment: Test C flooded paddy test; type: in vivo, Oryza sativa; settings: Flood, scale 0 to 100 (0 no effect, 100 complete control), 13 to 15 days
Source text: as §2

giant foxtail [19] = experiment: Test A postemergence; type: in vivo, Setaria faberii
How it was run: as §1

rice [20] = experiment: Test B flooded paddy test; type: in vivo, Oryza sativa; settings: Flood, 250 g ai/ha; 0 to 100 scale where 0 is no effect and 100 is complete control
How it was run: as §3

pigweed [21] = experiment: Test A postemergence; type: in vivo, Amaranthus retroflexus
How it was run: as §1

pigweed [22] = experiment: Test A preemergence; type: in vivo, Amaranthus retroflexus
How it was run: as §1

blackgrass = experiment: Test A postemergence; type: in vivo, Alopecurus myosuroides; settings: 1000 g ai/ha, 0 to 100 scale, 0 no effect, 100 complete control
How it was run: as §1

ragweed [23] = experiment: Test A preemergence; type: in vivo, Ambrosia elatior; settings: 1000 g ai/ha, 0 to 100 scale, 0 no effect, 100 complete control, approx. 10 days
How it was run: as §1

Italian ryegrass [24] = experiment: Test A postemergence; type: in vivo, Lolium multiflorum; settings: 1000 g ai/ha, 0 to 100 scale, 0 no effect, 100 complete control
How it was run: as §1

galium = experiment: Test A postemergence; type: in vivo, Galium aparine; settings: 1000 g ai/ha, 0 to 100 scale, 0 no effect, 100 complete control
How it was run: as §1

kochia [25] = experiment: Test A postemergence; type: in vivo, Kochia scoparia; settings: 1000 g ai/ha, 0 to 100 scale, 0 no effect, 100 complete control
How it was run: as §1

kochia [26] = experiment: Test A preemergence; type: in vivo, Kochia scoparia; settings: 1000 g ai/ha, 0 to 100 scale, 0 no effect, 100 complete control, approx. 10 days
How it was run: as §1

ragweed [27] = experiment: Test A postemergence; type: in vivo, Ambrosia elatior; settings: 1000 g ai/ha, 0 to 100 scale, 0 no effect, 100 complete control
How it was run: as §1

Italian ryegrass [28] = experiment: Test A preemergence; type: in vivo, Lolium multiflorum; settings: 1000 g ai/ha, 0 to 100 scale, 0 no effect, 100 complete control, approx. 10 days
How it was run: as §1

[29] = 500 g ai/ha, 0 to 100 scale where 0 is no effect and 100 is complete control
[30] = 125 g ai/ha, 0 to 100 scale where 0 is no effect and 100 is complete control
[31] = 1000 g ai/ha, 0 to 100 scale, 0 no effect, 100 complete control, approx. 10 days
[32] = 1000 g ai/ha, 0 to 100 scale, 0 no effect, 100 complete control

FC(F)c1cccc(Oc2ncc(Cl)cn2)c1-n1cc(I)cn1 [Compound 184]
Corn plant response rating (0 to 100 scale) (corn [1]; 125 g ai/ha): 20
Corn plant response rating (corn [1]; [29]): 20
Plant response rating, Barnyardgrass (barnyardgrass [2]; 31 g ai/ha): 0
Plant response rating, Barnyardgrass (barnyardgrass [2]; 62 g ai/ha): 0
Plant response rating, Barnyardgrass (barnyardgrass [2]; 125 g ai/ha): 0
Plant response rating, Barnyardgrass (barnyardgrass [2]; 250 g ai/ha): 0
Foxtail, Giant plant response rating (0 to 100 scale) (giant foxtail [3]; 125 g ai/ha): 100
Foxtail, Giant plant response rating (giant foxtail [3]; [29]): 100
Velvetleaf plant response rating (velvetleaf [4]; 125 g ai/ha): 80
Plant response rating, Velvetleaf (velvetleaf [4]; 500 g ai/ha): 90
Barnyardgrass plant response rating (0 to 100 scale, 0 is no effect, 100 is complete control) (barnyardgrass [5]; 125 g ai/ha): 30
Barnyardgrass plant response rating (barnyardgrass [5]; [29]): 100
Velvetleaf plant response rating (0 to 100 scale) (velvetleaf [6]; 125 g ai/ha): 20
Velvetleaf plant response rating (velvetleaf [6]; [29]): 60
Plant response rating, Sedge, Umbrella (sedge, umbrella [7]; 31 g ai/ha): 0
Plant response rating, Sedge, Umbrella (sedge, umbrella [7]; 62 g ai/ha): 0
Plant response rating, Sedge, Umbrella (sedge, umbrella [7]; 125 g ai/ha): 50
Plant response rating, Sedge, Umbrella (sedge, umbrella [7]; 250 g ai/ha): 75
Plant response rating, Sedge, Umbrella (sedge, umbrella [8]): 95
Corn plant response rating (corn [9]; [30]): 20
Plant response rating, Corn (corn [9]; [29]): 70
Morningglory plant response rating (morningglory [10]; 125 g ai/ha): 60
Plant response rating, Morningglory (morningglory [10]; 500 g ai/ha): 90
Crabgrass, Large plant response rating (0 to 100 scale) (large (Lg) crabgrass [11]; 125 g ai/ha): 100
Crabgrass, Large plant response rating (large (Lg) crabgrass [11]; [29]): 100
Plant response rating, Ducksalad (ducksalad; 31 g ai/ha): 0
Plant response rating, Ducksalad (ducksalad; 62 g ai/ha): 30
Plant response rating, Ducksalad (ducksalad; 125 g ai/ha): 30
Plant response rating, Ducksalad (ducksalad; 250 g ai/ha): 75
Plant response rating, Barnyardgrass (barnyardgrass [12]): 0
Crabgrass, Large plant response rating (large (Lg) crabgrass [13]; 125 g ai/ha): 70
Plant response rating, Crabgrass, Large (large (Lg) crabgrass [13]; 500 g ai/ha): 80
Morningglory plant response rating (0 to 100 scale) (morningglory [14]; 125 g ai/ha): 0
Morningglory plant response rating (morningglory [14]; [29]): 90
Wheat plant response rating (wheat [15]; [30]): 30
Plant response rating, Wheat (wheat [15]; [29]): 90
Barnyardgrass plant response rating (barnyardgrass [16]; [30]): 60
Plant response rating, Barnyardgrass (barnyardgrass [16]; [29]): 90
Plant response rating, Ducksalad (Heteranthera limosa): 100
Wheat plant response rating (0 to 100 scale) (wheat [17]; 125 g ai/ha): 0
Wheat plant response rating (wheat [17]; [29]): 30
Plant response rating, Rice (rice [18]; 31 g ai/ha): 0
Plant response rating, Rice (rice [18]; 62 g ai/ha): 0
Plant response rating, Rice (rice [18]; 125 g ai/ha): 0
Plant response rating, Rice (rice [18]; 250 g ai/ha): 0
Foxtail, Giant plant response rating (giant foxtail [19]; [30]): 70
Plant response rating, Foxtail, Giant (giant foxtail [19]; [29]): 80
Plant response rating, Rice (rice [20]): 10
Pigweed plant response rating (pigweed [21]; [30]): 100
Plant response rating, Pigweed (pigweed [21]; [29]): 100
Pigweed plant response rating (0 to 100 scale) (pigweed [22]; 125 g ai/ha): 100
Pigweed plant response rating (pigweed [22]; [29]): 100

Cc1noc(-c2cccc(Oc3ncc(Cl)cn3)c2-n2cc(C(F)(F)F)cn2)n1 [Compound 299]
Foxtail, Giant plant response rating (giant foxtail [3]; [31]): 100
Plant response rating, Blackgrass (blackgrass): 80
Ragweed plant response rating (ragweed [23]): 70
Plant response rating, Ryegrass, Italian (Italian ryegrass [24]): 70
Barnyardgrass plant response rating (barnyardgrass [5]; [31]): 90
Plant response rating, Galium (galium): 80
Plant response rating, Sedge, Umbrella (sedge, umbrella [8]): 70
Plant response rating, Kochia (kochia [25]): 70
Plant response rating, Corn (corn [9]; [32]): 70
Plant response rating, Barnyardgrass (barnyardgrass [12]): 20
Plant response rating, Wheat (wheat [15]; [32]): 20
Plant response rating, Barnyardgrass (barnyardgrass [16]; [32]): 80
Plant response rating, Ducksalad (Heteranthera limosa): 20
Kochia plant response rating (kochia [26]): 100
Plant response rating, Ragweed (ragweed [27]): 30
Plant response rating, Foxtail, Giant (giant foxtail [19]; [32]): 90
Plant response rating, Rice (rice [20]): 15
Ryegrass, Italian plant response rating (Italian ryegrass [28]): 60
Plant response rating, Pigweed (pigweed [21]; [32]): 100
Pigweed plant response rating (pigweed [22]; [31]): 100
